Data on eight molecules can be found in patent US20250114361A1, “PYRAZOLOPYRIMIDINE COMPOUND AND PHARMACEUTICAL USE THEREOF” (Japan Tobacco Inc., priority 2022, published 2025).

By IC50 is commonly meant the concentration that inhibits the measured activity by half. Read a high IC50 as weaker potency.

Data set [1] relates to mouse strain expressing CAPS-related NLRP3 mutations. To be noted: in vivo; cited from earlier work.
In data set [2] the target is NLRP3 inflammasome (Homo sapiens (Human), UniProt Q96P20). Nature of the data set: NLRP3 inflammasome inhibitory activity: inhibition of IL-1β production in THP1-Null cells (PMA, LPS, Nigericin). The format is cell-based. The conditions noted are these: Nigericin 7.5 μmol/L. The method, then:
The NLRP3 inflammasome inhibitory activity of test compounds were evaluated on the basis of the inhibitory activity of the IL-1β production in THP1-Null cells (Product Number: thp-null, InvivoGen). Cells were maintained for culture in RPMI-1640 media containing 10% (v/v) fetal bovine serum, 25 mmol/L HEPES, 100 U/mL penicillin, 100 μg/mL streptomycin, 100 μg/mL normocin, and 200 μg/mL hygromycin B (set at 37° C., 5% CO2/95% air).
Cells were suspended with media for assay containing 0.5 μmol/L PMA (RPMI-1640 media containing 10% (v/v) fetal bovine serum, 100 U/mL penicillin, and 100 μg/mL streptomycin), and the suspended cells were seeded on Corning (registered trademark) 384-well Flat Clear Bottom Black Polystyrene TC-treated Microplates (25,000 cells/25 μL/well), followed by incubation (set at 37° C., 5% CO2/95% air) overnight. The supernatant of the culture was removed, and thereto was added media for assay (25 μL/well) containing 1 μg/mL Lipopolysaccharides (Product Number: L2654, Sigma-Aldrich (registered trademark)). Then, the culture was further incubated for 3 hours (set at 37° C., 5% CO2/95% air). The supernatant of the culture was removed. Then, a vehicle solution prepared from Opti-MEM (trademark) medium (Product Number: 31985-070, Invitrogen) was added to blank-setting wells and control-setting wells (20 μL/well), followed by incubation for 15 minutes (set at 37° C., 5% CO2/95% air). A solution containing a test compound (20 μL/well) was added to test compound-setting wells. Further, Opti-MEM (trademark) medium containing Nigericin (Product Number: N7143, Sigma-Aldrich (registered trademark)) was added to the control-setting wells and test compound-setting wells (5 μL/well), followed by incubation for 1.5 hours (set at 37° C., 5% CO2/95% air). The final concentration of Nigericin was adjusted to be 7.5 μmol/L. 5 μL/well of Opti-MEM (trademark) medium was added to the blank-setting wells. The supernatant of the culture was cryonically stored (set at −20° C.) until measurement of IL-1β.
The amount of IL-1β in the culture supernatant was quantitated with AlphaLISA (registered trademark) Human IL-1β Detection Kit (Product Number: AL220C, Perkin Elmer). Fluorescence intensity was measured with a microplate reader EnSpier (Model number: 2300-00J, Perkin Elmer) or EnSight (Model number: HH34000000, Perkin Elmer) according to procedure manuals attached thereto. Inhibition rates of the test compound-setting wells were calculated on the basis of 100% for the blank-setting wells and 0% for the control-setting wells. IC50 values (i.e., 50% inhibitory concentrations) of the test compounds were calculated by logistic regression analysis.

For data set [3], the system named is MOG35-55EAE model mice. The conditions noted are these: administration after the onset; cited from earlier work.
Data set [4] relates to mouse model of deoxycorticosterone acetate-salt. To be noted: in vivo; cited from earlier work.
The test system of data set [5] is APP/PS1 mice. To be noted: mouse, in vivo; cited from earlier work.
Data set [6] deals with α-synuclein PFF injected mice. The conditions noted are these: mouse, in vivo; cited from earlier work.
In data set [7] the test system is R6/2 mice. To be noted: mouse, in vivo; cited from earlier work.
Data set [8] deals with microglia. To be noted: cited from earlier work.
Data set [9] deals with TBI model mice. To be noted: mouse, in vivo; cited from earlier work.
Data set [10] deals with middle cerebral artery occlusion (MCAO) mice. To be noted: MCAO model; cited from earlier work.
The subject of data set [11] is intracerebral bleeding model rats. The conditions noted are these: cited from earlier work.
The test system of data set [12] is pilocarpine-induced epilepsy model mice. The conditions noted are these: mouse, in vivo; cited from earlier work.
Data set [13] concerns pathological models of depressive illness. To be noted: in vivo; cited from earlier work.
Data set [14] relates to maternal immune activation (MIA) model. To be noted: administration to the mother; cited from earlier work.
The test system of data set [15] is mice with spinal cord injury. The conditions noted are these: mouse, in vivo; cited from earlier work.
Data set [16] relates to intestinal perforation model. The conditions noted are these: in vivo; cited from earlier work.
The subject of data set [17] is mice infected with SARS-CoV-2. To be noted: mouse, in vivo; cited from earlier work.
Data set [18] relates to STZ-induced diabetic mice. To be noted: mouse, in vivo; cited from earlier work.
For data set [19], the system named is intra-articular urate-injected arthritis model. To be noted: in vivo; cited from earlier work.

Chain of NLRP3 inflammasome (Q96P20 whole entry): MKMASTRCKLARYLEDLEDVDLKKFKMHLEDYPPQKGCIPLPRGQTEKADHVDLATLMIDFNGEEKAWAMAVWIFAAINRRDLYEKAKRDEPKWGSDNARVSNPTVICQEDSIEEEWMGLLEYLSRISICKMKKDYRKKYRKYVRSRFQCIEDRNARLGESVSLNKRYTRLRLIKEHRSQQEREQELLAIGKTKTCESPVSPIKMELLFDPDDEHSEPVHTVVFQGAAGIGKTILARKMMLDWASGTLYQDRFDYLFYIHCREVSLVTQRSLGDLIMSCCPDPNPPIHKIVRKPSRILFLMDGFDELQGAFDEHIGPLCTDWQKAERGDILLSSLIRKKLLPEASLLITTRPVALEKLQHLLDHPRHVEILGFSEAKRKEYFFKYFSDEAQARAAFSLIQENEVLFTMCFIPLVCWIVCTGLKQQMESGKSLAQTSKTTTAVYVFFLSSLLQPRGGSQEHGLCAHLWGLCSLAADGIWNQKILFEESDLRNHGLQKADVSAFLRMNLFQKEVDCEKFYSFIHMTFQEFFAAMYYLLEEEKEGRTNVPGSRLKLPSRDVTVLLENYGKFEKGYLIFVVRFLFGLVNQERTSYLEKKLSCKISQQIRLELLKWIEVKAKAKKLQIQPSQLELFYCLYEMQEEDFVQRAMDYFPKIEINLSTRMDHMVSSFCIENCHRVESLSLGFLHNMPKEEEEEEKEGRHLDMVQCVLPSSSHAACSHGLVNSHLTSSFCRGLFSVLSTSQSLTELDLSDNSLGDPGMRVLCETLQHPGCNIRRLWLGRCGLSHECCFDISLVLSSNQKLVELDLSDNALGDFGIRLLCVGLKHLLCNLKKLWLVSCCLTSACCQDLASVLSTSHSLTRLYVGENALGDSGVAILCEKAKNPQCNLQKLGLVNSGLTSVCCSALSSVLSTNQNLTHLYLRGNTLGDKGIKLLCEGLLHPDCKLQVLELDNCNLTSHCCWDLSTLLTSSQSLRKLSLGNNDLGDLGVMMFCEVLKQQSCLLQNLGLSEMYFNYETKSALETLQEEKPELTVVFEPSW

Turning to `O=C(O)c1ccc(/C=C2/SC(=S)N(Cc3cccc(C(F)(F)F)c3)C2=O)cc1` [CY-09], the “systemic lethal inflammation and survival” value in [1] is “suppressed systemic lethal inflammation and improved the survival”.
`Cc1cc(C2CC2)cc(C)c1-n1cc2c(=O)[nH]c(-c3cc4n(n3)CCC4)nc2n1` [Example 57]: in data set [2], the IC50 was 0.009 µM.
On the same count and under the same terms, in the case of `Cc1cc(C(C)(F)F)cc(C)c1-n1cc2c(=O)[nH]c(-c3cscn3)nc2n1` [Example 58] it was 0.003 µM; in that of `Cn1ccc(-c2nc3nn(-c4cc5c(cc4Cl)CCC5)cc3c(=O)[nH]2)n1` [Example 59, 2-(6-chloro-2,3-dihydro-1H-inden-5-yl)-6-(1-methyl-1H-pyrazol-3-yl)-2,5-dihydro-4H-pyrazolo[3,4-d]pyrimidin-4-one], 0.034 µM.
For `Cc1cc(C(C)(F)F)cc(C)c1-n1cc2c(=O)[nH]c(-c3nc[nH]n3)nc2n1` [Example 60], 0.39 µM corresponded to half-maximal inhibition in data set [2] (IC50).
As to `COc1ccc(Cl)cc1C(=O)NCCc1ccc(S(=O)(=O)NO)cc1` [JC-171], in data set [3], the “impairment of motor function” value is “inhibited the impairment of motor function”.
Regarding `CC(C)(O)c1coc(S(=O)(=O)NC(=O)Nc2c3c(cc4c2CCC4)CCC3)c1` [MCC950], in data set [4], the hypertension result is “suppress hypertension”. Moreover, the “NLRP3 activation in microglia and cognitive dysfunction” value in data set [5] is “suppresses NLRP3 activation in microglia and improves cognitive dysfunction”. Also, the “NLRP3 activation and neuronal death of dopamine neurons in the substantia nigra” value in [6] is “inhibits NLRP3 activation in the substantia nigra and suppresses neuronal death of dopamine neurons in the substantia nigra”. In data set [7], the “NLRP3 inflammasome activation, neuronal death in the striatum, symptom progression” value is “inhibits NLRP3 inflammasome activation in the striatum of R6/2 mice, suppresses neuronal death in the striatum, and suppresses symptom progression”. In addition, in [8], the “NLRP3 activation in microglia and IL-1β production” value is “inhibits SOD1G93A and TDP-43 protein-induced NLRP3 activation in microglia and decreases IL-1β production”. Besides, the “IL-1β production and neurological symptoms after brain injury” value in data set [9] was “inhibits IL-1β production in TBI model mice and suppresses the development of neurological symptoms after brain injury”. In addition, the neuroprotective effects entry in [10] and in data set [11] was “showed neuroprotective effects” throughout. In addition, the “apoptosis of hippocampal neurons” value in data set [12] is “suppress apoptosis of hippocampal neurons”. In addition, the depressive symptoms result in data set [13] is “improves depressive symptoms”. In data set [14], the “ASD symptoms in offspring” value is recorded as “suppresses ASD symptoms in offspring”. In data set [15], the “NLRP3 activation and IL-1β expression in the spinal cord, recovery of motor function” value was “NLRP3 activation and IL-1β expression in the spinal cord are suppressed, and the recovery of motor function is promoted”. For the same molecule, the “NLRP3 inflammasome activation and memory impairment” value in data set [16] was “NLRP3 inflammasome activation is suppressed and the memory impairment is improved”. In addition, the “NLRP3 inflammasome activation in the lung and dysregulated immune response” value in data set [17] is “inhibits NLRP3 inflammasome activation in the lung and suppresses the dysregulated immune response”. Besides, the increased vascular permeability entry in [18] is “alleviated increased vascular permeability”.
Consider `CS(=O)(=O)CCC#N` [OLT1177], for which the arthritis result in [19] is recorded as “suppressed arthritis”.
